Laboratory results taken from ChEMBL document CHEMBL1201862, “PubChem BioAssay data set” (2004).
Active and inactive are the calls of the source.

Tests used:
HEK293 = assay: Fluorescence-based counterscreen for potentiators or agonists of NPY-Y1: cell-based high-throughput dose response assay for inhibitors of cyclic nucleotide gated ion channel (CNGC) activity. In this assay, the parental HEK293 cell line transfected with a cyclic-nucleotide gated ion channel (CNGC)-based cAMP sensor is used to measure inhibition of isoproterenol-induced CNGC …; assay type: functional; conditions: Homo sapiens
[1] = molecular target: T1, Neuropeptide Y receptor type 1 (Homo sapiens, UniProt P25929); assay: Fluorescence-based dose response cell-based high-throughput screening assay for agonists of NPY-Y1. [Related pubchem assays: 1697 (Screening assay (NPY-Y1 agonists).), 1359 (Screening assay (NPY-Y2 potentiators or agonists).), 1304 (Screening assay (NPY-Y1 potentiators or agonists).), 1704 (Screening assay (CNGC inhibitors).), 1791 (Summary AID.)]; assay type: functional
T1 sequence (P25929 whole entry): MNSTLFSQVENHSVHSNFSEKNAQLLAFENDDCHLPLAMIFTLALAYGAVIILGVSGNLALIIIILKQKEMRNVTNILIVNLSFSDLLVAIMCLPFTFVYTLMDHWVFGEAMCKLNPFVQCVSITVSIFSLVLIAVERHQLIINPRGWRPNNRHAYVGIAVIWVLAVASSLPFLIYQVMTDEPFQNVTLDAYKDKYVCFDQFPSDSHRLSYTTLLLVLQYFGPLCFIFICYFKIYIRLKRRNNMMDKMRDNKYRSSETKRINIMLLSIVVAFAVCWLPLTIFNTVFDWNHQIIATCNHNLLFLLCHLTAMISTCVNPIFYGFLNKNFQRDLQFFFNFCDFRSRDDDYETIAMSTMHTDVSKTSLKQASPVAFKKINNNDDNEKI

[2] = molecular target: T2, Neuropeptide Y receptor type 2 (Homo sapiens, UniProt P49146); assay: Fluorescence-based counterscreen for agonists of NPY-Y1: cell-based high-throughput dose response assay for agonists of NPY-Y2.; assay type: functional
T2 sequence (P49146 whole entry): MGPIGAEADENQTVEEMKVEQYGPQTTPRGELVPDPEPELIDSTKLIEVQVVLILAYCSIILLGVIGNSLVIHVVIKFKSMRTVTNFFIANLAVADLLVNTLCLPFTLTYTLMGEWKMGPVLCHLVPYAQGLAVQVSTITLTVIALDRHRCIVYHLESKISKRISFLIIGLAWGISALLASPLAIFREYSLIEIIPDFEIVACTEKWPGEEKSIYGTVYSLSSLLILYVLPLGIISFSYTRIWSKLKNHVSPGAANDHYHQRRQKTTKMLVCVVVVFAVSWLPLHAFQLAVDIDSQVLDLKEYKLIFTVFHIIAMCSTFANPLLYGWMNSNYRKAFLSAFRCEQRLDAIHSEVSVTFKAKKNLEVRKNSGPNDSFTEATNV

[3] = molecular target: T3, Microphthalmia-associated transcription factor (Homo sapiens, UniProt O75030); assay: TRPM1 promoter luciferase signal decrease, dose response, MITF inhibitor project, cell-based, SK-MEL-5, cherry-picked, set 3 (AID 493073); assay type: functional
T3 sequence (O75030 whole entry): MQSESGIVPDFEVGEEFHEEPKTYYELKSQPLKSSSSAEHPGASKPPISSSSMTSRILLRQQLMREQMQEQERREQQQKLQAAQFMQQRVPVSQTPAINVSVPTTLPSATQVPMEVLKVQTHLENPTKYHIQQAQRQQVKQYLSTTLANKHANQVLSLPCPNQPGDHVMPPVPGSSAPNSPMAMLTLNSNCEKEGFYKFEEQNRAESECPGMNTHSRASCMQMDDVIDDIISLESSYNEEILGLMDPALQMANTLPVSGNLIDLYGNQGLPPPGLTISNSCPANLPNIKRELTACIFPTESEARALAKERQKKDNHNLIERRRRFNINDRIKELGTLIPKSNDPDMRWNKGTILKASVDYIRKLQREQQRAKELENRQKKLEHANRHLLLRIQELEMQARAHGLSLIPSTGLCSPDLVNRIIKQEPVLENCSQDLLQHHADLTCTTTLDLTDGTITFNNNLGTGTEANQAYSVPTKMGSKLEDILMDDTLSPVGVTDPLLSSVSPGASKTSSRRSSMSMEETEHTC

[4] = molecular target: Transitional endoplasmic reticulum ATPase (Homo sapiens, UniProt P55072); assay: p97 ATPase inhibitors, dose response, biochemical (AID 1534)
[5] = molecular target: Transitional endoplasmic reticulum ATPase (Homo sapiens, UniProt P55072, C522A); assay: C522A mutant p97 ATPase inhibitors, dose response, counter-screen for p97 inhibitor project, biochemical, luminescence (AID 1544)
Cytochrome P450 2C19 = Cytochrome P450 2C19 (Homo sapiens, UniProt P33261); assay: qHTS Assay for Inhibitors and Substrates of Cytochrome P450 2C19. [Related pubchem assays: 410 ]; assay type: ADME; conditions: read-out: Potency
Cytochrome P450 2D6 = Cytochrome P450 2D6 (Homo sapiens, UniProt P10635); assay: qHTS Assay for Inhibitors and Substrates of Cytochrome P450 2D6. [Related pubchem assays: 410 ]; assay type: ADME; conditions: read-out: Potency
[6] = inhibitors of SNCA 5'UTR-driven reporter translation, confirmation, H4 neuroglioma cells, luminescence (AID 1988); assay type: functional, cell-based
[7] = inhibitors of firefly luciferase expression or activity, dose response, H4 neuroglioma cells, luminescence (AID 1990); assay type: functional, cell-based
[8] = luciferase reporter signal reduction – luminescence, H4-C neuroglioblastoma cells, dose response (AID 2458); assay type: functional, cell-based;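 also: H4 neuroglioblastoma cells stably carrying a luciferase reporter gene fusion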
[9] = inhibitors of SNCA 5'UTR-driven translation, confirmation, luminescence, H4 neuroglioblastoma cells, dose confirmation (AID 2454); assay type: functional, cell-based;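 also: H4 neuroglioblastoma cells carrying an alpha-synuclein 5'UTR luciferase reporter; potency for inhibition of the luciferase signal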
cells = assay type: functional, cell-based
[10] = molecular target: Intestinal-type alkaline phosphatase (Homo sapiens, UniProt P09923); assay: activation of human intestinal alkaline phosphatase – biochemical, dose response (AID 488873); assay type: functional
[11] = THP-1 cell cytotoxicity, dose response, cytotoxicity control for Vif-APOBEC3G degradation inhibitor project, THP-1 cells (AID 1117359); assay type: functional; conditions: Human immunodeficiency virus 1, THP-1
Albumin = Albumin (Bos taurus, UniProt P02769); assay: Counterscreen for inhibitors of T-cell receptor (TCR)-CD3 interaction: Fluorescence-based biochemical high throughput dose response assay to identify inhibitors of T-cell receptor (TCR)-CD3 interaction using a TAMRA-labeled BSA probe.; assay type: functional
Large T antigen = Large T antigen (Simian virus 40, UniProt P03070); assay type: functional, Betapolyomavirus macacae;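 also: Confirmatory-stage PubChem screen for compounds that inhibit SV40 T antigen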
[12] = molecular target: T4, Alkaline phosphatase, tissue-nonspecific isozyme (Homo sapiens, UniProt P05186); assay: TNAP enzyme activators, dose response, selectivity assay for mouse IAP activator project, biochemical, TNAP isozyme, mouse IAP uHTS hits (AID 488880); assay type: functional
T4 sequence (P05186 whole entry): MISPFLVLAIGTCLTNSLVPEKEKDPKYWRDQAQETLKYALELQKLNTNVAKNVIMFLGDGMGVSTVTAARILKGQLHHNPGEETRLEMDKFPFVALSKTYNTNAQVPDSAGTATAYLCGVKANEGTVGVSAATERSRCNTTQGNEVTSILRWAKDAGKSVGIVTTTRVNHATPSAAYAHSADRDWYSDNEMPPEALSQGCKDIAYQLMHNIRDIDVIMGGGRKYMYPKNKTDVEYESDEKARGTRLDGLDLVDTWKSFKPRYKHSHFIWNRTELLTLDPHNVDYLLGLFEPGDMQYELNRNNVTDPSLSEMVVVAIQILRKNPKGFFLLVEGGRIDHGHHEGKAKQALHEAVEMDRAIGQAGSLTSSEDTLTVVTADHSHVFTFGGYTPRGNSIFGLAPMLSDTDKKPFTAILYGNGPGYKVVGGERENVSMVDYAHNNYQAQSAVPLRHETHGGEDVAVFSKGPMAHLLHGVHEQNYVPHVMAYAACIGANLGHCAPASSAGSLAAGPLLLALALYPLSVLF

Procathepsin L = Procathepsin L (Homo sapiens, UniProt P07711)
Aspartyl aminopeptidase = molecular target: T5, Aspartyl aminopeptidase (Plasmodium falciparum 3D7, UniProt Q8I2J3)
T5 sequence (Q8I2J3 whole entry): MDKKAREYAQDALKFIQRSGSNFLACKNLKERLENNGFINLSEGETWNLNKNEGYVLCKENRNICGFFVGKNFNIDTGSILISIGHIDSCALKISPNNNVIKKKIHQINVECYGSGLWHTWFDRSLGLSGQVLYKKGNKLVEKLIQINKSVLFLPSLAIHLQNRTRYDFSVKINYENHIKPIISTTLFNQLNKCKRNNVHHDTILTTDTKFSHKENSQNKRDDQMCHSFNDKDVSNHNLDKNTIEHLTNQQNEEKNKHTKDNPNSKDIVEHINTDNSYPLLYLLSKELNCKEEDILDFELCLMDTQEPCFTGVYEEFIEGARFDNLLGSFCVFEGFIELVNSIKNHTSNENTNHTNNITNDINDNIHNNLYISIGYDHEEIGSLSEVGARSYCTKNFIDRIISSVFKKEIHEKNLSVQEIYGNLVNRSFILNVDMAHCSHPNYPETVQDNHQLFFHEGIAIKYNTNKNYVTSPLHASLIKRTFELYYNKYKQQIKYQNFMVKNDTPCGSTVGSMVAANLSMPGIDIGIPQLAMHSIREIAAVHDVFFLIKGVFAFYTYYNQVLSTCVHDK

[13] = molecular target: FAD-linked sulfhydryl oxidase ALR (Homo sapiens, UniProt P55789); assay: inhibitors of human ALR sulfhydryl oxidase, dose response, biochemical, H2O2 detection, luminescence, cherry-pick (AID 493248)
[14] = molecular target: Intestinal-type alkaline phosphatase (Mus musculus, UniProt P24822); assay: mouse intestinal alkaline phosphatase activators, dose response, biochemical, luminescence, uHTS hits (AID 488783); assay type: functional
Sequence of Intestinal-type alkaline phosphatase (Mus musculus, UniProt P24822) (P24822 whole entry): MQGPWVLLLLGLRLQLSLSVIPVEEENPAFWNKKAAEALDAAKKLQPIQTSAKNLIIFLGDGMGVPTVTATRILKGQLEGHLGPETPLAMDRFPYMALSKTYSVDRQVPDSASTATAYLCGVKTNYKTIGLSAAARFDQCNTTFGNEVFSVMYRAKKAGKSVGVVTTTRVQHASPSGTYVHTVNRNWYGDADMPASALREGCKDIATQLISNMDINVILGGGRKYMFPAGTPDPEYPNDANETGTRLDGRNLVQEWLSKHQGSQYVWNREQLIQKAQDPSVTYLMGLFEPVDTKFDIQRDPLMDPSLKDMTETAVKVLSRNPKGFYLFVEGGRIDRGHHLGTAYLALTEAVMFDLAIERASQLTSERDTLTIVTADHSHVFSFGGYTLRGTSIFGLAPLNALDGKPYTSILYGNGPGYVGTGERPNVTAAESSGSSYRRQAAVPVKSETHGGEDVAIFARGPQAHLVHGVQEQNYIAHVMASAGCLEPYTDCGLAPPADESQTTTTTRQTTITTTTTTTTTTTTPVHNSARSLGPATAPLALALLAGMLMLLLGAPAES

Sequence of Transitional endoplasmic reticulum ATPase (Homo sapiens, UniProt P55072) (P55072 whole entry): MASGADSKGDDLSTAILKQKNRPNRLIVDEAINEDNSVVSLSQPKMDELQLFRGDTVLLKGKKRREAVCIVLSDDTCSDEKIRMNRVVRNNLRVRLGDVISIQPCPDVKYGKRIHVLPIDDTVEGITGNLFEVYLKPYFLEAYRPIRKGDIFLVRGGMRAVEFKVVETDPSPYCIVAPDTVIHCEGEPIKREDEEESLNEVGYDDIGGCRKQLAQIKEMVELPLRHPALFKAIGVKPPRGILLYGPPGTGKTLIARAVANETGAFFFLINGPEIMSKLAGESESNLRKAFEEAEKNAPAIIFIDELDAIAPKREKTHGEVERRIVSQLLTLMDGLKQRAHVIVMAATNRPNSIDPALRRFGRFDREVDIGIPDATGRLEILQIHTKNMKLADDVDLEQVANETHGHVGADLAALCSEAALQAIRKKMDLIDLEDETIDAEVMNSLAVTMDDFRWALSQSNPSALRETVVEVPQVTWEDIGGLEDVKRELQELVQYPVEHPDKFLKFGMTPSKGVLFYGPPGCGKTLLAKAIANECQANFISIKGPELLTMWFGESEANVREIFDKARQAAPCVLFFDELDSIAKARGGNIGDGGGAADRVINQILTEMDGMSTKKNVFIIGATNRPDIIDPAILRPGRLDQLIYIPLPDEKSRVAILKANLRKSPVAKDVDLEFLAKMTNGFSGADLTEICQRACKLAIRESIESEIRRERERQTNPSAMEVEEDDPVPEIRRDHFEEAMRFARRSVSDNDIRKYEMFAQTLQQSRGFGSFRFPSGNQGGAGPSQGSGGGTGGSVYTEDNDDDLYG
Sequence of Transitional endoplasmic reticulum ATPase (Homo sapiens, UniProt P55072, C522A) (P55072 2-806 C522A limits assumed): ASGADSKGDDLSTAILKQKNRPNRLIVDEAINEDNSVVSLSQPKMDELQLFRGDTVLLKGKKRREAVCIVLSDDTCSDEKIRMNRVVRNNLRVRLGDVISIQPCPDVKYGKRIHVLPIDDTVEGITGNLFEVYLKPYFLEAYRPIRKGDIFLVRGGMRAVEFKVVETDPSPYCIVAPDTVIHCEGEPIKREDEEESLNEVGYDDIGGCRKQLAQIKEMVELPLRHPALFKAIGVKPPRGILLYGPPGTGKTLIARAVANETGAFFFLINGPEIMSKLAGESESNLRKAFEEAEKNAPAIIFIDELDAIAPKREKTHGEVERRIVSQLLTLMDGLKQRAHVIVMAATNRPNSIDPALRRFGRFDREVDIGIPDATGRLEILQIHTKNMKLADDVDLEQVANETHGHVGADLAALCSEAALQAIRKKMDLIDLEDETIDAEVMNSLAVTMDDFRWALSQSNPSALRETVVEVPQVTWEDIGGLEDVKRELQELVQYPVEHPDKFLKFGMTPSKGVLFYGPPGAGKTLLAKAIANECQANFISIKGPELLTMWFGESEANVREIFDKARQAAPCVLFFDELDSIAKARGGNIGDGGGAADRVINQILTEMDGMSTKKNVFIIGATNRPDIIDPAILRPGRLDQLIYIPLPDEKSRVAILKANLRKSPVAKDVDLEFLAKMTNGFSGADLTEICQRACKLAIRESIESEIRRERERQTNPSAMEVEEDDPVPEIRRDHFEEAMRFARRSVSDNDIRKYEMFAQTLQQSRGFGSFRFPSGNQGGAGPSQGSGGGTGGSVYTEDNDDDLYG
Sequence of Albumin (P02769 whole entry): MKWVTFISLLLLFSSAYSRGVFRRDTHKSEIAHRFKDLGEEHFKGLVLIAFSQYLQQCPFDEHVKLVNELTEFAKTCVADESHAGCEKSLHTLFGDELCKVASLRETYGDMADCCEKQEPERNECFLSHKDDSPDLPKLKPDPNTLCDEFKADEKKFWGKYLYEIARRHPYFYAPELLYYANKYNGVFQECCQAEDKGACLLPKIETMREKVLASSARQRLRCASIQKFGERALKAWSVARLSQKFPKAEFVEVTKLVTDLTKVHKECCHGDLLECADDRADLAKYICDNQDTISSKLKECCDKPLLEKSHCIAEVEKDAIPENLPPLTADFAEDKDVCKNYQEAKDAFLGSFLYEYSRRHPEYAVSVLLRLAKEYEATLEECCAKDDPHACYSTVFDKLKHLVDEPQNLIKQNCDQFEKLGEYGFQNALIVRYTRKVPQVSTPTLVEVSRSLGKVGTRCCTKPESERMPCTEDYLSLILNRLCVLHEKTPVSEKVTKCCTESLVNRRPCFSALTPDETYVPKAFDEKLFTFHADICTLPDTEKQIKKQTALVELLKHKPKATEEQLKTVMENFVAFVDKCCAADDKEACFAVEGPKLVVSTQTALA
Sequence of Procathepsin L (P07711 whole entry): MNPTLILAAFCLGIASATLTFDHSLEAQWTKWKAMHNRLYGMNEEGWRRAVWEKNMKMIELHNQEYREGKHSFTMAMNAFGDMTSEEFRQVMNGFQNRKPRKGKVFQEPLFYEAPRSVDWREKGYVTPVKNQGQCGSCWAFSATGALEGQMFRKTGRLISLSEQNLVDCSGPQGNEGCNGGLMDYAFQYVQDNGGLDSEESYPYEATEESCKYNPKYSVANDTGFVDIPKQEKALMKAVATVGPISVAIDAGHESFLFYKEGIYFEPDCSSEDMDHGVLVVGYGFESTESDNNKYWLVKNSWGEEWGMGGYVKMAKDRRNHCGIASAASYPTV
Sequence of Cytochrome P450 2D6 (P10635 whole entry): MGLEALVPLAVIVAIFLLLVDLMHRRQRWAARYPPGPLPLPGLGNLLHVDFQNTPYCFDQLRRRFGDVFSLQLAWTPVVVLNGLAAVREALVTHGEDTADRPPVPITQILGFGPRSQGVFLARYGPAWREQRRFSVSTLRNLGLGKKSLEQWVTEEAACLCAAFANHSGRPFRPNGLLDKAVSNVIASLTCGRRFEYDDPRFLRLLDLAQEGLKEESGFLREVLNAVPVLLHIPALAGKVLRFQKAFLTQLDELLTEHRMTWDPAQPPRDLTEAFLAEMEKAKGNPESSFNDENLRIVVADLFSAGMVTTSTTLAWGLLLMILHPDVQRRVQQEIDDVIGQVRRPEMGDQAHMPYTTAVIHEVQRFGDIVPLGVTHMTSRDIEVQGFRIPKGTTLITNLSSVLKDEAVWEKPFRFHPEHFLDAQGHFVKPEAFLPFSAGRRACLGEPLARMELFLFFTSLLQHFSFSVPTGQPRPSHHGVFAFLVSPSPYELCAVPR
Sequence of FAD-linked sulfhydryl oxidase ALR (P55789 whole entry): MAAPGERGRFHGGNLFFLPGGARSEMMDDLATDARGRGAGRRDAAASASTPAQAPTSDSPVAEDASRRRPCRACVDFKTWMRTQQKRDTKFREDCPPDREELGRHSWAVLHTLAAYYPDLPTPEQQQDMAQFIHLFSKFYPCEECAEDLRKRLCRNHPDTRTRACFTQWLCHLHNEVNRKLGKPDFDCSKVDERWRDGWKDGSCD
Sequence of Cytochrome P450 2C19 (P33261 whole entry): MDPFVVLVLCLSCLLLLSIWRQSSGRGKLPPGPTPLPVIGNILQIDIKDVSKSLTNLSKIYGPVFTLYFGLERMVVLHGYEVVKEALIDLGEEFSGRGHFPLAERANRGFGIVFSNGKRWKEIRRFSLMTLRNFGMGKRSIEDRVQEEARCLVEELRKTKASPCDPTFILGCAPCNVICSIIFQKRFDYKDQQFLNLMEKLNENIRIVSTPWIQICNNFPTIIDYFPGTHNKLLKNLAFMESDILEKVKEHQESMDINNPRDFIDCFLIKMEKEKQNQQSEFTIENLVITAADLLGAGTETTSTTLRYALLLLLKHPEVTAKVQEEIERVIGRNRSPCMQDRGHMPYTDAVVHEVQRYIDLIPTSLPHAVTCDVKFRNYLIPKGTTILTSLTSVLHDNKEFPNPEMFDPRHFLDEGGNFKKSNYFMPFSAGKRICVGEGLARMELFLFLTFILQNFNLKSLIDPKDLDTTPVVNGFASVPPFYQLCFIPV
Sequence of Intestinal-type alkaline phosphatase (Homo sapiens, UniProt P09923) (P09923 whole entry): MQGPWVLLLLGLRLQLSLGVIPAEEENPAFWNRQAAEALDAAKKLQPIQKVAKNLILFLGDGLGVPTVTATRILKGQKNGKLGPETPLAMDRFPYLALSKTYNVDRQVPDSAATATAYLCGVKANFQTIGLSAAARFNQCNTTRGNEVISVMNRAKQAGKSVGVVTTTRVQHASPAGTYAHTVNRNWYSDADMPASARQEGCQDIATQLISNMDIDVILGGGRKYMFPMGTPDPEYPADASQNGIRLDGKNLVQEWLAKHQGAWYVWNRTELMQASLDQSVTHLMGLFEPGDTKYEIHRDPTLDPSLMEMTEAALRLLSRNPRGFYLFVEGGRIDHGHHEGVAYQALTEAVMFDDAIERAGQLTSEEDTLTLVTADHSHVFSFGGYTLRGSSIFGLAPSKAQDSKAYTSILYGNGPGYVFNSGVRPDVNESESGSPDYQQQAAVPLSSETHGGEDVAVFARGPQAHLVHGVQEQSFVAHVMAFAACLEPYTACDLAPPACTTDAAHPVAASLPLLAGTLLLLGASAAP

## COc1ccccc1Oc1ccc(-c2cnc3ccccc3n2)cc1[N+](=O)[O-]
HEK293
  IC50: > 35.4 µM (not active)
[1]
  EC50: > 35.4 µM (not active)
[2]
  EC50: > 35.4 µM (not active)

## Cn1cc(C(=O)CCl)c2ccccc21
[3]
  AC50: 8.48 µM (active)
[4]
  IC50: > 50 µM (not active)
[5]
  IC50: > 50 µM (not active)

## CCN(CC)[C@@H](C)C(=O)N1c2ccccc2Sc2ccccc21
Cytochrome P450 2C19
  AC50: 31.6 µM (inconclusive)
Cytochrome P450 2D6
  AC50: 20 µM (inconclusive)

## O=Cc1cn(Cc2ccccc2F)c2ccccc12
[6]
  EC50: < 0.1 µM (active)
[7]
  EC50: 14 µM (active)
[8]
  EC50: 3.85 µM (active)
[9]
  EC50: 2.11 µM (active)
cells
  EC50: 1.75 µM (active)

## Oc1ccc(/C=N/N=C/c2ccc(O)c(O)c2)cc1O
[10]
  EC50: 27.3 µM (active)
[11]
  CC50: 39.1 µM (active)
Albumin
  IC50: > 94.1 µM (inactive)
Large T antigen
  IC50: 1.15 µM (active)
[12]
  EC50: 37.4 µM (active)
Procathepsin L
  IC50: > 59.6 µM (not active)
Aspartyl aminopeptidase
  IC50: 1.75 µM (active)
[13]
  AC50: 0.543 µM (active)
[14]
  EC50: 18 µM (active)
